From US20100004169A1, “CCN3 peptide” (The Queen's University of Belfast, priority 2006, published 2010)
d = 2'-deoxy (DNA); r = 2'-OH (RNA)

B1: recombinant CCN3: recombinant CCN3 protein from Peprotech EC, London, UK (protein, UniProt P48745 32-357, looked up)
CCN family member 3: TQRCPPQCPGRCPATPPTCAPGVRAVLDGCSCCLVCARQRGESCSDLEPCDESSGLYCDRSADPSNQTGICTAVEGDNCVFDGVIYRSGEKFQPSCKFQCTCRDGQIGCVPRCQLDVLLPEPNCPAPRKVEVPGECCEKWICGPDEEDSLGGLTLAAYRPEATLGVEVSDSSVNCIEQTTEWTACSKSCGMGFSTRVTNRNRQCEMLKQTRLCMVRPCEQEPEQPTDKKGKKCLRTKKSLKAIHLQFKNCTSLHTYKPRFCGVCSDGRCCTPHNTKTIQAEFQCSPGQIVKKPVMVIGTCTCHTNCPKNNEAFLQELELKTTRGKM

How the values were obtained:
CCN3 [1] = assay: Real-time PCR of CCN3 in bone marrow of CML patients at diagnosis and following treatment; assay type: in vivo, human; conditions: three CML patients, diagnosis vs following treatment
Description: Leukemia. 2003; 17:2474-2486).

CCN3 [2] = assay: Real-time PCR of CCN3 expression in CML cell lines (K562) after treatment; assay type: cell-based, human; conditions: for CCN3 expression (in words): CML cell lines; for mean Ct change for CCN3: n=3
Protocol: (§1) K562 cells were nucleofected following the manufacturer's instructions using the Cell Line Nucleofector Kit V, program T-16 (Amaxa GmbH, Cologne, Germany) and transfected with either the appropriate si-RNA, a scrambled si-RNA sequence or a non-silencing fluorescently labeled si-RNA (Amaxa GmbH) to monitor transfection efficiency. […] Leukemia.
(§2) RQ-PCR was performed with an ABI PRISM 7700 Sequence Detector which exploits TaqMan probe based chemistry (Applied Biosystems, Foster City, Calif.). The 5′ reporter used was 6-carboxyfluorescein (FAM) and the 3′ quencher was 6-carboxy-tetramethylrhodamine (TAMRA). Primers and probes for CCN3 were designed against GenBank published sequences in association with Primer Express (Applied Biosystems). […] Leukemia. […] Amplifications were performed following an initial 2-minute incubation at 50° C. to allow uracil-N-glycosylase (UNG) to destroy any contaminating […], followed by treatment at 95° C. for 10 minutes to inactivate the UNG enzyme and activate the AmpliTaq Gold DNA polymerase. This was followed by 40 to 45 cycles of denaturing at 95° C. for 15 seconds and annealing/extension at 60° C. for 1 minute. Data were collected and analysed with Sequence Detector v1.6.3 software (Applied Biosystems).

CCN3 [3] = assay: Western blot of cellular and secreted CCN3 in CD34+ cells from CML patients treated in vitro; assay type: cell-based, human; conditions: CD34+ cells from three CML patients at diagnosis, imatinib 1 μM, 72 hours in vitro
BCR-ABL = assay: Real-time PCR of BCR-ABL expression in CML cell lines (K562) after treatment; assay type: cell-based, human
Protocol: as §1, §2

CCN3 [4] = assay: Extracellular (secreted) CCN3 protein levels in K562 after siRNA to BCR-ABL; assay type: cell-based, human; conditions: K562 cells, n=3
Protocol: Protein was extracted from cells by suspending in RIPA buffer (1×PBS, 1% Nonidet NP-40, 0.1% SDS) containing a cocktail of protease Inhibitors (Complete Mini Cocktail, Roche Diagnostics Ltd, Lewes, UK) at a concentration of 10^7 cells/mL and lysing for 10 minutes on ice. Samples were sonicated for 10 seconds to ensure complete lysis, centrifuged at 10,000 g at 4° C. for 10 minutes and the supernatant removed for analysis. Total protein content was determined by the […] using the BCA protein assay kit (Pierce, Cramlington, UK). Protein (15 μg) was loaded onto a pre-cast Bis-Tris polyacrylamide gel (10%) using the Novex mini gel system (Invitrogen, Paisley, UK) and subsequently transferred to a PVDF membrane. CCN3 expression was detected using an antibody raised against the C terminus of CCN3. Equivalent protein loading was controlled by monitoring actin expression using a pan-actin antibody (Cell Signalling Technology Inc, MA). Immunoblots were visualised by enhanced chemiluminescence (Supersignal, Pierce). Optical densitometry was performed using the […] (Ultra-Violet Products Ltd., Cambridge, UK) and corrected for protein loading. CCN3 protein is glycosylated and binds to heparin. Medium in which ts BCR-ABL FDCP-Mix or control cells had been grown for 24 hours was harvested and enriched for CCN3 protein using heparin sepharose. […]

K562 cells = assay: Flow cytometric cell cycle analysis (sub-G0) of K562 cells treated with exogenous recombinant CCN3; assay type: cell-based, human; conditions: 100 ng/ml CCN3, 48 hours
Protocol: K562 cells (1×10^6 cells/well) were treated with recombinant CCN3 (100 ng/ml, Peprotech EC, London, UK) in vitro for 48 hours. Cells were then fixed in 70% ethanol for flow cytometric analysis of cell cycle status as before.

[5] = K562 cells, siRNA 0.5 μg/10^8 cells, 24 hours

Molecule | CCN3 expression following treatment (in words) (CCN3 [1]) | CCN3 expression (in words) (CCN3 [2]) | mean Ct change for CCN3 (CCN3 [2]; K562 cells, 1 μM imatinib, 96 hours) | cellular and secreted CCN3 expression (in words) (CCN3 [3]) | BCR-ABL expression (in words) (BCR-ABL; CML cell lines) | fold decrease in BCR-ABL (BCR-ABL; [5]) | mean Ct change for BCR-ABL (BCR-ABL; K562 cells, siRNA to BCR-ABL, n=3) | decrease in secreted levels of CCN3 protein (CCN3 [4]) | fold increase in CCN3 (CCN3 [2]; [5]) | mean Ct change for CCN3 (CCN3 [2]; K562 cells, siRNA to BCR-ABL) | sub-G0 peak (K562 cells)
Cc1ccc(NC(=O)c2ccc(CN3CCN(C)CC3)cc2)cc1Nc1nccc(-c2cccnc2)n1 [imatinib] | reciprocal rise in CCN3 | increased CCN3 expression | 2.1±0.2 | significant increase in both cellular and secreted CCN3 expression | – | – | – | – | – | – | –
si-RNA directed against BCR-ABL: 21-base si-RNA directed against the fusion sequence of BCR-ABL, SEQ ID NO 9 sense, SEQ ID NO 10 antisense (sense GCAGAGUUCAAAAGCCCUUTT; antisense AAGGGCUUUUGAACUCUGCTT; sugars from the 5' end r19 d2, backbone not given here) | – | increased CCN3 expression | – | – | significantly reduced BCR-ABL | 3.7 fold | 1.9±0.2 | 33±5% | 6.1 fold | 2.6±0.5 | –
B1 | – | – | – | – | – | – | – | – | – | – | 23.7±6.9%
